Measurements from paper PMC7026418, “The kinase polypharmacology landscape of clinical PARP inhibitors” (Scientific Reports, 2020).
Where two headings read alike, the source gives them in different places.

What was measured:
Assay in all cases: biochemical
Parameters in all cases: DiscoveRx KINOMEscan active site-directed competition binding; percent of control kinase bound to immobilised ligand
CAMK2B = CAMK2B (Homo sapiens, UniProt Q13554)
CSNK1G3 = CSNK1G3 (Homo sapiens, UniProt Q9Y6M4)
[1] = molecular target: T1, JAK3(JH1domain-catalytic) (Homo sapiens, UniProt P52333)
T1 construct: JH1domain-catalytic
T1 sequence (P52333 1-1124): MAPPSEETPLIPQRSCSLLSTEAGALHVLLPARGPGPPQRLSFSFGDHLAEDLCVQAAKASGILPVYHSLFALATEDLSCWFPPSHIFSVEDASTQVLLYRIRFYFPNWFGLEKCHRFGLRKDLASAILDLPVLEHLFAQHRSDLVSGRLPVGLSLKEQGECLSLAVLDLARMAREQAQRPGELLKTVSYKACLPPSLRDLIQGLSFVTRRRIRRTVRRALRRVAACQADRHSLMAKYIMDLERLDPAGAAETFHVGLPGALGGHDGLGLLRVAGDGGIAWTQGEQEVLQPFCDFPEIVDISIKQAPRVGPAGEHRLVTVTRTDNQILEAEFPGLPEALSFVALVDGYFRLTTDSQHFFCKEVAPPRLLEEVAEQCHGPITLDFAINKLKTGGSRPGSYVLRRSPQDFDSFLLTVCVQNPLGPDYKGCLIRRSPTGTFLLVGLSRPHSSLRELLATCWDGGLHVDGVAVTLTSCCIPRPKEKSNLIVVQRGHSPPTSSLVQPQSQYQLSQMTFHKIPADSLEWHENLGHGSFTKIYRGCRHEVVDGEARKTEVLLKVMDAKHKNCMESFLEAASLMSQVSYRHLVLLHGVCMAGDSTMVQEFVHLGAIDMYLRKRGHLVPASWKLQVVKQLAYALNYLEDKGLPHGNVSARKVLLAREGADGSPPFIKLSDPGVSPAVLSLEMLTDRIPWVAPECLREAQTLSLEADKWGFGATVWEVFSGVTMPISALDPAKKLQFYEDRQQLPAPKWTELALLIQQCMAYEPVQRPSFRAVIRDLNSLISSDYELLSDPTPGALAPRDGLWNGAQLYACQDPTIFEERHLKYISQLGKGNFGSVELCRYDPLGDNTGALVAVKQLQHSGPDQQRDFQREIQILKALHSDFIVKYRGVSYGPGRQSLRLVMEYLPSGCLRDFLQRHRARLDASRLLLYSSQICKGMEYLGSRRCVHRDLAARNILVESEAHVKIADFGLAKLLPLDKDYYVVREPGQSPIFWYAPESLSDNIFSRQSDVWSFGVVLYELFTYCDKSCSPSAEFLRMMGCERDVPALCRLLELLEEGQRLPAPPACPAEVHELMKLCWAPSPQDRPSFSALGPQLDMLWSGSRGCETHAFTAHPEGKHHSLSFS

MTOR = MTOR (Homo sapiens, UniProt P42345)
[2] = molecular target: T2, RSK3(Kin.Dom.2-C-terminal) (Homo sapiens, UniProt Q15349)
T2 construct: gene RPS6KA2; Kin.Dom.2-C-terminal
T2 sequence (Q15349 whole entry): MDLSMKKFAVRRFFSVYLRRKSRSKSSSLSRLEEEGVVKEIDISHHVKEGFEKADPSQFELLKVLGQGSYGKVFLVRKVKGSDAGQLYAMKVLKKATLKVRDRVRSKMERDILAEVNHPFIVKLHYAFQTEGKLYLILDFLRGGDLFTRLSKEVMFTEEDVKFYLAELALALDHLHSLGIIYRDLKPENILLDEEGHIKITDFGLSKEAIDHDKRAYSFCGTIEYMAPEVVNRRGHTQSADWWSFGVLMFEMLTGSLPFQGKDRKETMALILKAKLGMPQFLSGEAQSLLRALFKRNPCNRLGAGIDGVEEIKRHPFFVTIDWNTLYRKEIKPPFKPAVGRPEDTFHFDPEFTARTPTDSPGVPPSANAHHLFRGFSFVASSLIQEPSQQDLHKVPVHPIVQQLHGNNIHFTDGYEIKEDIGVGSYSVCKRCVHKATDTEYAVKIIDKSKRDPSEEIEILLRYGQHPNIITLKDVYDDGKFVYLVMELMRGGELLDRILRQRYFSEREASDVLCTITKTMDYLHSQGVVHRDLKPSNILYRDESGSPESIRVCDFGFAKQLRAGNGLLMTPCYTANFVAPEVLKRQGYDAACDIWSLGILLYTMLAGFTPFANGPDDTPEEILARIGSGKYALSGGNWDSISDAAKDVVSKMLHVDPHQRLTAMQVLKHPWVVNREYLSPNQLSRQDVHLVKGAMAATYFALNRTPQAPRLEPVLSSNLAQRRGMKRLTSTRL

SNRK = molecular target: T3, SNRK (Homo sapiens, UniProt Q9NRH2)
T3 sequence (Q9NRH2 1-765): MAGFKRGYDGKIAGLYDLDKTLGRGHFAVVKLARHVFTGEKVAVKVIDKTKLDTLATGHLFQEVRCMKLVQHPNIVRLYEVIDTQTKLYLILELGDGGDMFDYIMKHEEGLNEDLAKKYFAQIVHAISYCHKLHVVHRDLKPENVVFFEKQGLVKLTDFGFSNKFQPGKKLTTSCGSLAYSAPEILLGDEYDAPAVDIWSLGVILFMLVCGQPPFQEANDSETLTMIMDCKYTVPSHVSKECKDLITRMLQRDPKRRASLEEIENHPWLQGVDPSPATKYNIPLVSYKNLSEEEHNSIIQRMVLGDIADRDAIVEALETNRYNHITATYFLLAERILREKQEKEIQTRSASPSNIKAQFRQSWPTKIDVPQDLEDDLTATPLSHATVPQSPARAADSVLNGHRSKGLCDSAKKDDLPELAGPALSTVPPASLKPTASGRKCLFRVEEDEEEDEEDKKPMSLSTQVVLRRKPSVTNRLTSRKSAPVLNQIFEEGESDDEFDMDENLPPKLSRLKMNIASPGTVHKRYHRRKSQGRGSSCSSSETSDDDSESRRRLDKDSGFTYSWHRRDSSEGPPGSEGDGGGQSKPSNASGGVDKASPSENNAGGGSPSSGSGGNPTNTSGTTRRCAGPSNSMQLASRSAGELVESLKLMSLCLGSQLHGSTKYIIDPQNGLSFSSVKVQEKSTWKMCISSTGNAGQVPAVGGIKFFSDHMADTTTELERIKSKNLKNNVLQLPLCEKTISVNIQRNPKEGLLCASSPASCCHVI

[3] = read-out: Niraparib (MK-4827) / %Ctrl @ 10000nM
[4] = read-out: Olaparib / %Ctrl @ 10000nM
[5] = read-out: Rucaparib / %Ctrl @ 10000nM, binding competition, % of control
[6] = read-out: Talazoparib (BMN 673) / %Ctrl @ 10000nM

Chain of CAMK2B (Q13554 whole entry): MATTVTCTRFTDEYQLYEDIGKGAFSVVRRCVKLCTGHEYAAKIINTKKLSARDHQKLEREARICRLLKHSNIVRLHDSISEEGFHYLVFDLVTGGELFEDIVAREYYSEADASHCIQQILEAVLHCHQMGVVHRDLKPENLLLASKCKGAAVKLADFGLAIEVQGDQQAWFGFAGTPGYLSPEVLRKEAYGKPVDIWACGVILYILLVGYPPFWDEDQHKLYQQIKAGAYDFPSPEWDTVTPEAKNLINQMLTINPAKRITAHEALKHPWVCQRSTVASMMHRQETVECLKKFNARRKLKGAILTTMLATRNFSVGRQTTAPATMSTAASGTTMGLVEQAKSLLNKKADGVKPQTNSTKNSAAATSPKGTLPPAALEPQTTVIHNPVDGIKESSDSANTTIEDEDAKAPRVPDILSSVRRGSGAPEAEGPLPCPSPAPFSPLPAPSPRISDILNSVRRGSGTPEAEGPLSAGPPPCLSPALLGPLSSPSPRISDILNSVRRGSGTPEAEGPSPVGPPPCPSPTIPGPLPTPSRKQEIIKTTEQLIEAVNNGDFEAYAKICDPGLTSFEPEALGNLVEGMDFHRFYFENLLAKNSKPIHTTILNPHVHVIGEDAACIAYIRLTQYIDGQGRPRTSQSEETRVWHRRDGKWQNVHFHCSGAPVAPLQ
Chain of CSNK1G3 (Q9Y6M4 whole entry): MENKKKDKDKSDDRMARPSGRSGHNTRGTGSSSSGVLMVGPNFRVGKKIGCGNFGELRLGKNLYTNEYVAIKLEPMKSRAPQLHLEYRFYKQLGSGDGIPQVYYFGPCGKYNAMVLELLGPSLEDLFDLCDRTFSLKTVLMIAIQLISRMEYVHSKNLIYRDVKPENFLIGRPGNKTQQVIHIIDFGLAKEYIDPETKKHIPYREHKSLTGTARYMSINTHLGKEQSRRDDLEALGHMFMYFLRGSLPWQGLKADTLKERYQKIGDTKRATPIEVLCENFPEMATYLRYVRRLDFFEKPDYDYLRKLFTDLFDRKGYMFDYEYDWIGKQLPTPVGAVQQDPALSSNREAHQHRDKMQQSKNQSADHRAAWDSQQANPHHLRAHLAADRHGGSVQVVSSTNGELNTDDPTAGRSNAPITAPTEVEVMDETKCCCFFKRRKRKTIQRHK

**Q.** `NC(=O)c1cccc2cn(-c3ccc([C@@H]4CCCNC4)cc3)nc12` [Niraparib] was tested. Which percent of control binding at 10 µM (CAMK2B; [3]) did it give?
**A.** 90%

**Q.** What about the percent of control binding at 10 µM (CSNK1G3; [3]) of the same compound?
**A.** 85%

**Q.** And the percent of control binding at 10 µM [1, 3]?
**A.** 95%

**Q.** What about the percent of control binding at 10 µM (MTOR; [3]) of the same compound?
**A.** 85%

**Q.** What about the percent of control binding at 10 µM [2, 3] of the same compound?
**A.** 93%

**Q.** What about the percent of control binding at 10 µM (SNRK; [3]) of the same compound?
**A.** 100%

**Q.** Which percent of control binding at 10 µM (CAMK2B; [4]) does the source give for `O=C(c1cc(Cc2n[nH]c(=O)c3ccccc23)ccc1F)N1CCN(C(=O)C2CC2)CC1` [Olaparib] here?
**A.** 96%

**Q.** What about the percent of control binding at 10 µM (CSNK1G3; [4]) of the same compound?
**A.** 93%

**Q.** What about the percent of control binding at 10 µM [1, 4] of the same compound?
**A.** 83%

**Q.** And the percent of control binding at 10 µM (MTOR; [4])?
**A.** 94%

**Q.** And the percent of control binding at 10 µM [2, 4]?
**A.** 70%

**Q.** What about the percent of control binding at 10 µM (SNRK; [4]) of the same compound?
**A.** 96%

**Q.** For `CNCc1ccc(-c2[nH]c3cc(F)cc4c3c2CCNC4=O)cc1` [Rucaparib], which percent of control binding at 10 µM (CAMK2B; [5]) is on record?
**A.** 86%

**Q.** And the percent of control binding at 10 µM (CSNK1G3; [5])?
**A.** 97%

**Q.** And the percent of control binding at 10 µM [1, 5]?
**A.** 70%

**Q.** What about the percent of control binding at 10 µM (MTOR; [5]) of the same compound?
**A.** 96%

**Q.** What about the percent of control binding at 10 µM [2, 5] of the same compound?
**A.** 67%

**Q.** And the percent of control binding at 10 µM (SNRK; [5])?
**A.** 80%

**Q.** Which results are given for `Cn1ncnc1[C@H]1c2n[nH]c(=O)c3cc(F)cc(c23)N[C@@H]1c1ccc(F)cc1` [Talazoparib]?
**A.** percent of control binding at 10 µM (CAMK2B; [6]): 92%; percent of control binding at 10 µM (CSNK1G3; [6]): 88%; percent of control binding at 10 µM [1, 6]: 100%; percent of control binding at 10 µM (MTOR; [6]): 35%; percent of control binding at 10 µM [2, 6]: 100%; percent of control binding at 10 µM (SNRK; [6]): 100%
